ChEMBL document CHEMBL2401728, “An unexpected Dimroth rearrangement leading to annelated thieno[3,2-d][1,2,3]triazolo[1,5-a]pyrimidines with potent antitumor activity” (Eur J Med Chem, 2013)

Legend:
Assay type in all cases: functional
NCI-H522 = experiment: Cytotoxicity against human NCI-H522 cells assessed as cellular growth at 10 uM after 48 hrs by SRB assay relative to control
A549 = experiment: Cytotoxicity against human A549 cells assessed as cellular growth at 10 uM after 48 hrs by SRB assay relative to control
CAKI-1 = experiment: Cytotoxicity against human Caki1 cells assessed as cellular growth at 10 uM after 48 hrs by SRB assay relative to control
NCI-H322M = experiment: Cytotoxicity against human NCI-H322M cells assessed as cellular growth at 10 uM after 48 hrs by SRB assay relative to control
SF-539 = experiment: Cytotoxicity against human SF539 cells assessed as cellular growth at 10 uM after 48 hrs by SRB assay relative to control
Malme-3M = experiment: Cytotoxicity against human MALME-3M cells assessed as cellular growth at 10 uM after 48 hrs by SRB assay relative to control
HCC 2998 = experiment: Cytotoxicity against human HCC2998 cells assessed as cellular growth at 10 uM after 48 hrs by SRB assay relative to control
TK-10 = experiment: Cytotoxicity against human TK10 cells assessed as cellular growth at 10 uM after 48 hrs by SRB assay relative to control
K562 = experiment: Cytotoxicity against human K562 cells assessed as cellular growth at 10 uM after 48 hrs by SRB assay relative to control
NCI-H23 = experiment: Cytotoxicity against human NCI-H23 cells assessed as cellular growth at 10 uM after 48 hrs by SRB assay relative to control
HCT-15 = experiment: Cytotoxicity against human HCT15 cells assessed as cellular growth at 10 uM after 48 hrs by SRB assay relative to control
ACHN = experiment: Cytotoxicity against human ACHN cells assessed as cellular growth at 10 uM after 48 hrs by SRB assay relative to control
MOLT-4 = experiment: Cytotoxicity against human MOLT4 cells assessed as cellular growth at 10 uM after 48 hrs by SRB assay relative to control
HT-29 = experiment: Cytotoxicity against human HT-29 cells assessed as cellular growth at 10 uM after 48 hrs by SRB assay relative to control
NCI-H460 = experiment: Cytotoxicity against human NCI-H460 cells assessed as cellular growth at 10 uM after 48 hrs by SRB assay relative to control
OVCAR-8 = experiment: Cytotoxicity against human OVCAR8 cells assessed as cellular growth at 10 uM after 48 hrs by SRB assay relative to control
KM12 = experiment: Cytotoxicity against human KM12 cells assessed as cellular growth at 10 uM after 48 hrs by SRB assay relative to control
RPMI-8226 = experiment: Cytotoxicity against human RPMI8226 cells assessed as cellular growth at 10 uM after 48 hrs by SRB assay relative to control
MDA-MB-231 = experiment: Cytotoxicity against human MDA-MB-231 cells assessed as cellular growth at 10 uM after 48 hrs by SRB assay relative to control
U-251 = experiment: Cytotoxicity against human U251 cells assessed as cellular growth at 10 uM after 48 hrs by SRB assay relative to control
SF-295 = experiment: Cytotoxicity against human SF295 cells assessed as cellular growth at 10 uM after 48 hrs by SRB assay relative to control
NCI-H226 = experiment: Cytotoxicity against human NCI-H226 cells assessed as cellular growth at 10 uM after 48 hrs by SRB assay relative to control
SF-268 = experiment: Cytotoxicity against human SF268 cells assessed as cellular growth at 10 uM after 48 hrs by SRB assay relative to control
[1] = Cytotoxicity against human NCI-ADR-RES cells assessed as cellular growth at 10 uM after 48 hrs by SRB assay relative to control
BT-549 = experiment: Cytotoxicity against human BT549 cells assessed as cellular growth at 10 uM after 48 hrs by SRB assay relative to control
MDA-MB-468 = experiment: Cytotoxicity against human MDA-MB-468 cells assessed as cellular growth at 10 uM after 48 hrs by SRB assay relative to control
OVCAR-4 = experiment: Cytotoxicity against human OVCAR4 cells assessed as cellular growth at 10 uM after 48 hrs by SRB assay relative to control
COLO 205 = experiment: Cytotoxicity against human COLO205 cells assessed as cellular growth at 10 uM after 48 hrs by SRB assay relative to control
SNB-75 = experiment: Cytotoxicity against human SNB75 cells assessed as cellular growth at 10 uM after 48 hrs by SRB assay relative to control
SN12C = experiment: Cytotoxicity against human SN12C cells assessed as cellular growth at 10 uM after 48 hrs by SRB assay relative to control
T47D = experiment: Cytotoxicity against human T47D cells assessed as cellular growth at 10 uM after 48 hrs by SRB assay relative to control
OVCAR-3 = experiment: Cytotoxicity against human OVCAR3 cells assessed as cellular growth at 10 uM after 48 hrs by SRB assay relative to control
UO-31 = experiment: Cytotoxicity against human UO31 cells assessed as cellular growth at 10 uM after 48 hrs by SRB assay relative to control
SK-MEL-5 = experiment: Cytotoxicity against human SK-MEL-5 cells assessed as cellular growth at 10 uM after 48 hrs by SRB assay relative to control
OVCAR-5 = experiment: Cytotoxicity against human OVCAR5 cells assessed as cellular growth at 10 uM after 48 hrs by SRB assay relative to control
DU-145 = experiment: Cytotoxicity against human DU145 cells assessed as cellular growth at 10 uM after 48 hrs by SRB assay relative to control
UACC-62 = experiment: Cytotoxicity against human UACC62 cells assessed as cellular growth at 10 uM after 48 hrs by SRB assay relative to control
LOX IMVI = experiment: Cytotoxicity against human LOXIMVI cells assessed as cellular growth at 10 uM after 48 hrs by SRB assay relative to control
SR = experiment: Cytotoxicity against human SR cells assessed as cellular growth at 10 uM after 48 hrs by SRB assay relative to control
MDA-MB-435 = experiment: Cytotoxicity against human MDA-MB-435 cells assessed as cellular growth at 10 uM after 48 hrs by SRB assay relative to control
CCRF-CEM = experiment: Cytotoxicity against human CCRF-CEM cells assessed as cellular growth at 10 uM after 48 hrs by SRB assay relative to control
MCF7 = experiment: Cytotoxicity against human MCF7 cells assessed as cellular growth at 10 uM after 48 hrs by SRB assay relative to control
SNB-19 = experiment: Cytotoxicity against human SNB19 cells assessed as cellular growth at 10 uM after 48 hrs by SRB assay relative to control

CN1CCN(CCCn2c3c(sc4ncccc43)c(=O)n3nnc(-c4ccccc4)c23)CC1
Activity (NCI-H522): -76% | Activity (A549): -74.7% | Activity (CAKI-1): -79% | Activity (NCI-H322M): -76% | Activity (SF-539): -95.99% | Activity (Malme-3M): -82% | Activity (HCC 2998): -87% | Activity (TK-10): -88% | Activity (K562): -41% | Activity (NCI-H23): -39% | Activity (HCT-15): -63% | Activity (ACHN): -77% | Activity (MOLT-4): -50% | Activity (HT-29): -46.19% | Activity (NCI-H460): -70.68% | Activity (OVCAR-8): -48.18% | Activity (KM12): -79% | Activity (RPMI-8226): -48% | Activity (MDA-MB-231): -83.53% | Activity (U-251): -84% | Activity (SF-295): -79% | Activity (NCI-H226): 71% | Activity (SF-268): -77% | Activity [1]: -29% | Activity (BT-549): 76% | Activity (MDA-MB-468): -94% | Activity (OVCAR-4): -65% | Activity (COLO 205): -82% | Activity (SNB-75): 48% | Activity (SN12C): -55% | Activity (T47D): 103% | Activity (OVCAR-3): -83.15% | Activity (UO-31): -90.79% | Activity (SK-MEL-5): -98% | Activity (OVCAR-5): -15% | Activity (DU-145): -74% | Activity (UACC-62): 85% | Activity (LOX IMVI): -96.04% | Activity (SR): -50% | Activity (MDA-MB-435): -81% | Activity (CCRF-CEM): -45% | Activity (MCF7): -91% | Activity (SNB-19): -63%

O=C(CCCn1c2c(sc3ccccc32)c(=O)n2nnc(-c3ccccc3)c12)NCCc1c[nH]cn1
Activity (NCI-H522): -95.79% | Activity (A549): -75.35% | Activity (CAKI-1): -83.98% | Activity (NCI-H322M): -34.11% | Activity (SF-539): -97.26% | Activity (Malme-3M): -76.11% | Activity (HCC 2998): 25.66% | Activity (TK-10): -91% | Activity (K562): -70% | Activity (NCI-H23): -54% | Activity (HCT-15): -75% | Activity (ACHN): -84% | Activity (MOLT-4): 79.44% | Activity (HT-29): -100% | Activity (NCI-H460): -93.2% | Activity (OVCAR-8): -50.58% | Activity (KM12): -90% | Activity (RPMI-8226): -4.25% | Activity (MDA-MB-231): -64% | Activity (U-251): -100% | Activity (SF-295): -83% | Activity (NCI-H226): -14% | Activity (SF-268): -77% | Activity [1]: 8% | Activity (BT-549): 4% | Activity (MDA-MB-468): -93% | Activity (OVCAR-4): -92.51% | Activity (COLO 205): -77% | Activity (SNB-75): -89% | Activity (SN12C): -80% | Activity (T47D): -25.44% | Activity (OVCAR-3): -96% | Activity (UO-31): -97% | Activity (SK-MEL-5): -67.14% | Activity (OVCAR-5): -91% | Activity (DU-145): -100% | Activity (UACC-62): -76% | Activity (LOX IMVI): -96% | Activity (SR): -64% | Activity (MDA-MB-435): -95.09% | Activity (CCRF-CEM): -58% | Activity (MCF7): -100% | Activity (SNB-19): 27.29%

O=C(O)CCCn1c2c(sc3ccccc32)c(=O)n2nnc(-c3ccccc3)c12
Activity (NCI-H522): 34.84% | Activity (A549): 89.47% | Activity (CAKI-1): 60.48% | Activity (NCI-H322M): 86.21% | Activity (SF-539): 91.17% | Activity (Malme-3M): 106.11% | Activity (HCC 2998): 96.03% | Activity (TK-10): 98.3% | Activity (K562): 96.49% | Activity (NCI-H23): 118.45% | Activity (HCT-15): 66.61% | Activity (ACHN): 79.06% | Activity (MOLT-4): 96.85% | Activity (HT-29): 92.57% | Activity (NCI-H460): 74.3% | Activity (OVCAR-8): 77.77% | Activity (KM12): 86.08% | Activity (RPMI-8226): 93.76% | Activity (MDA-MB-231): 92.52% | Activity (U-251): 94.66% | Activity (SF-295): 92.89% | Activity (NCI-H226): 82.97% | Activity (SF-268): 91.25% | Activity [1]: 107.52% | Activity (BT-549): 54.36% | Activity (MDA-MB-468): 85.92% | Activity (OVCAR-4): 93.19% | Activity (COLO 205): 110.27% | Activity (SNB-75): 83% | Activity (SN12C): 88.81% | Activity (T47D): 78.01% | Activity (OVCAR-3): 103.59% | Activity (UO-31): 69.07% | Activity (SK-MEL-5): 79.01% | Activity (OVCAR-5): 154.53% | Activity (DU-145): 94.87% | Activity (UACC-62): 75.64% | Activity (LOX IMVI): 94.14% | Activity (SR): 117.58% | Activity (MDA-MB-435): 89.16% | Activity (CCRF-CEM): 92.35% | Activity (MCF7): 84.04% | Activity (SNB-19): 76.27%
